This is an account of results in PMC8025302, “Structural and biophysical characterization of the tandem substrate-binding domains of the ABC importer GlnPQ” (Open Biology, 2021).

Test [1] has as its system tandem SBD1-2 wild-type protein. The experiment in a line: Differential scanning calorimetry, thermostability of tandem with ligand. Type of test: binding, Lactococcus lactis. Particulars: DSC; unliganded 59°C. The procedure: Furthermore, we verified the stability of the proteins using differential scanning calorimetry (DSC) by analysing thermostability and potential differences in folding of wild-type SBD1-2 and linker mutants (figure 6b,c; electronic supplementary material, table S7). In the unliganded state, the melting temperature of both single SBDs was 59°C [41], which is the same for all tandem SBD1-2 mutants. The addition of either asparagine or glutamine increased the protein stability of the tandem resulting in a higher melting temperature of approximately 62°C for SBD1 and greater than or equal to 69°C for SBD2. […] We assign the peak shifts to a specific SBD by comparing the melting temperatures of the tandem SBD1-2 to that of the single SBDs. […] We find that linker deletions of 5 and 8 amino acids increase the stability of the proteins by 2–3°C. Maximal stabilization of SBD2 in SBD1-2 tandems is observed in the presence of glutamine, […] (figure 6c).
To determine the proteins thermal stability, DSC experiments were performed as described previously. Briefly, the purified SBDs were dialysed overnight against the DSC working buffer, i.e. 50 mM KPi (pH 7.0), 150 mM KCl, 1 mM EDTA and 1 mM NaN3. DSC experiments with working buffer solutions containing 4 µM of an SBD-mutant and 5 mM substrate were conducted on a VP-DSC Calorimeter (MicroCal, GE Healthcare, Buckinghamshire). The melting temperature Tm was determined by ORIGIN 8 (Origin Lab Corp, Northampton, MA).
(In general: DSC measures the heat that a sample takes up or gives off during a temperature scan.)

The target in test [2] is SBD1 within the tandem SBD1-2 (Lactococcus lactis, UniProt Q9CES5). The experiment in a line: Isothermal titration calorimetry, SBD1 site of tandem SBD1-2. In kind it is binding. The note with it: SBD1 within tandem SBD1-2; ITC, 25°C, pH 6.0. The procedure: (§1) ITC experiments were performed as described previously. Briefly, the purified SBDs were dialysed overnight against 50 mM KPi (pH 6.0), 1 mM EDTA and 1 mM NaN3. Isothermal titration experiments were carried out using an ITC-200 (MicroCal, GE Healthcare, Buckinghamshire, UK). For these experiments, the substrate was prepared in the dialysis buffer to minimize mixing effects. All experiments were carried out at 25°C and a mixing rate of 1000 r.p.m. The concentration of SBD1 and SBD2 and associated tandem mutants varied between 20 and 100 µM during the experiment, depending on the expected KD of the protein under investigation. For titration experiments with asparagine typically the concentration of ligand in the syringe was 8–10× the concentration in the cell. […] The recorded data was approximated by a one- respectively two-site binding model and fitted using the nonlinear curve-fitting tool provided by ORIGIN 8 (Origin Lab Corp., Northhampton, MA) to describe the molar enthalpy change ΔH for protein–ligand complex formation, the stoichiometry n and the corresponding association constant KA. […] The molar entropy change ΔS was calculated from ΔG = ΔH − TΔS. […] For analysing the glutamine binding to SBD1-Δ5-SBD2, which features two binding sites, we first determined the parameters for the single site using the conditions of asparagine binding to SBD1. […]
In general terms: Isothermal titration calorimetry measures the heat released or taken up as one component is titrated into another.

In test [3] the target is SBD1 of GlnPQ (isolated domain). Set-up: method as in PMID 23994008. The note with it: ITC; cited from earlier work.
Test [4] addresses SBD2 within the tandem SBD1-2 (Lactococcus lactis, UniProt Q9CES5). The experiment in a line: Isothermal titration calorimetry, SBD2 site of tandem SBD1-2. Particulars: ITC. In kind it is binding. Here is the method:
as §1

Test [5] addresses SBD2 of GlnPQ (isolated domain). More on the design: method as in PMID 23994008. The note with it: ITC; cited from earlier work.

Structures are written as SMILES. Several values for one entry are separate records, joined by “and”; a condition that tells them apart may be missing. Equal entries are not always repeated.

SBD1 within the tandem SBD1-2, sequence (Q9CES5 entry or part of it): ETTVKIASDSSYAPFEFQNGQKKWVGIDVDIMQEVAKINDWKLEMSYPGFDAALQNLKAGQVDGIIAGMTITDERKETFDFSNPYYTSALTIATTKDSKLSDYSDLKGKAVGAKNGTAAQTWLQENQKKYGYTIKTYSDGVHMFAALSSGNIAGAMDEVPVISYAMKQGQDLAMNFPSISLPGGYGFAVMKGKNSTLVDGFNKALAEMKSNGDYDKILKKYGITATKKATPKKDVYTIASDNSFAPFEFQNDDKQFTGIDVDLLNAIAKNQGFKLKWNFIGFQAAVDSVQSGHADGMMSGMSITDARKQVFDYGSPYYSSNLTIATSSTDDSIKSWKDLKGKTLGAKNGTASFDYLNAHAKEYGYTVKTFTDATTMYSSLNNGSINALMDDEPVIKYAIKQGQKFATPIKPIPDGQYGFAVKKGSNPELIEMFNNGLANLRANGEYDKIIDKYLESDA
SBD2 within the tandem SBD1-2, sequence (Q9CES5 entry or part of it): as above

Usually Kd stands for the equilibrium constant for the complex coming apart. As for `NC(=O)C[C@H](N)C(=O)O` [asparagine], in test [1], the “melting temperature of SBD1 in the tandem after addition of ligand” value was “approximately 62 °C” and the “melting temperature of SBD2 in the tandem after addition of ligand” value is “greater than or equal to 69 °C”. Further, in test [2], the equilibrium dissociation constant (Kd) came out at 400 ± 100 nM. In addition, the Kd in test [3] was 200 nM.

Regarding `NC(=O)CC[C@H](N)C(=O)O` [glutamine], the Kd in test [4] (SBD2 within tandem SBD1-2, SBD1 blocked with 1 mM asparagine) was 900 nM; in test [4] (SBD2 within tandem SBD1-2, no asparagine, 25°C, pH 6.0), 600 ± 200 nM; in test [2], 180000 nM and ~100000 nM; in test [3], 90000 nM; in test [5], around 900 nM. Besides, the “melting temperature of SBD1 in the tandem after addition of ligand” value in test [1] was “approximately 62 °C”. Also, the “melting temperature of SBD2 in the tandem after addition of ligand” value in test [1] is “greater than or equal to 69 °C”.
